Literature values as cited in paper PMC12300650, “Development and Characterization of a New Oral Antileishmanial Bis(pyridine-2-Carboxamidine) Drug Through Innovative Dissolution Testing in Biorelevant Media Combined with Pharmacokinetic Studies” (Pharmaceutics, 2025).
Read-outs that look alike come from different tables or passages of the source.

[1] = FaSSIF pH 6.5, ref Higashino et al., 2023 [23]
[2] = Two state FaSSGF to FaSSIF, ref Arnold et al., 2011 [22]
[3] = FaSSIF pH 6.8, ref Naing et al., 2024 [24]

SMILES	Precipitation time [1]	Supersaturation Time [1]	Precipitation time [2]	Supersaturation Time [2]	Precipitation time [3]	Supersaturation Time [3]
OCCN(CCO)c1nc(N2CCCCC2)c2nc(N(CCO)CCO)nc(N3CCCCC3)c2n1 [Dipyridamole]	60 to 120 min	30 min	20 to 180 min	20 min		
CC(=O)N1CCN(c2ccc(OCC3COC(Cn4ccnc4)(c4ccc(Cl)cc4Cl)O3)cc2)CC1 (centres unmarked) [Ketoconazole]	30 to 60 min	30 min				
CC(C)c1nc(CN(C)C(=O)N[C@H](C(=O)N[C@@H](Cc2ccccc2)C[C@H](O)[C@H](Cc2ccccc2)NC(=O)OCc2cncs2)C(C)C)cs1 [Ritonavir]					30 to 60 min	30 min
